Data from US10059655B2, “Lipids and lipid compositions for the delivery of active agents” (priority 2013, dated 2018).

Assays:
Type in all cases: physicochemical
[1] = Particle size of the lipid nanoparticle (Z-average, dynamic light scattering, Malvern Zetasizer); settings: for Size 1st IM / Size 2nd IM: RSV-F replicon RNA LNP, DLS; for Size 1st IM: 1st immunization; for Size 2nd IM: 2nd immunization
Source text: The lipid nanoparticles have a size of about 1 to about 2,500 nm, about 10 to about 1,500 nm, about 20 to about 1,000 nm, in a sub-embodiment about 50 to about 600 nm, in a sub-embodiment about 50 to about 400 nm, in a sub-embodiment about 50 to about 250 nm, and in a sub-embodiment about 50 to about 150 nm. Unless indicated otherwise, all sizes referred to herein are the average sizes (diameters) of the fully formed nanoparticle, as measured by dynamic light scattering on a Malvern Zetasizer. The nanoparticle sample is diluted in phosphate buffered saline (PBS) so that the count rate is approximately 200-400 kcts. The data is presented as a weighted average of the intensity measure.
Unless indicated otherwise, all particle size measurements referred to in Table 3 are the Z-average particle size of the fully formed nanoparticle, as measured by dynamic light scattering on a Malvern Zetasizer. The nanoparticle sample was diluted in phosphate buffered saline (PBS) so that the count rate is approximately 200-400 kcts.
% entrapment (% E), Concentration of RNA (Conc), particle size measured by DLS, and polydispersity reported by DLS of LNPs prepared with different cationic lipids

[2] = Measurement of mRNA encapsulation in lipid nanoparticles (Quant-iT Ribogreen); settings: for % encapsulation mRNA Leptin: Leptin mRNA in LNP
Summary of the method: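 LNPs were formed by T-junction mixing of ethanolic lipids (cationic lipid:DSPC:cholesterol:PEG lipid 40:10:38:2) with mRNA in citrate pH 5.8–6.0 at N:P 4:1, then dialysed against PBS overnight at 4 °C. RiboGreen fluorescence (ex 480/em 520 nm) was read on samples diluted 400–2,000-fold in TE with or without 0.75% Triton X-100 and quantified against standard curves. Encapsulation % = (Triton − buffer concentration)/Triton concentration.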

[3] = Measurement of plasmid DNA encapsulation in lipid nanoparticles (Quant-iT Ribogreen)
Procedure: All equipment and disposable supplies are certified free of RNase activity by the manufacturer or rendered RNase free by use of the RNaseZap reagent (LifeTechnologies). Plasmid is encapsulated at a cationic lipid amine to DNA phosphate (N:P) molar ratio of 4:1. Lipids (cationic lipid, DSPC, cholesterol and lipidated PEG) are dissolved in ethanol. The molar ratios are 40:10:38:2, respectively. The mixture is sonicated briefly, then gently agitated for 5 minutes and then maintained at 37° C. until use. Plasmid is exchanged into citrate buffer pH 6.0 by use of Amicon Ultra-15 centrifugal concentrators, and the final concentration is adjusted to 0.053 mg/ml and held at 37° C. until use. An equal volume of lipids in ethanol, plasmid in citrate buffer, and citrate buffer alone are drawn into disposable syringes. Tubing leading from syringes containing lipids and DNA are attached to the T junction, and tubing leading from the syringe containing citrate buffer alone is paired with the tubing exiting the T-junction over a collection vessel containing a stir bar on an active stir plate. Syringes are placed in a syringe pump set to expel contents at a flow rate of 1 ml per minute. The pump is activated, and the collected DNA in lipid nanoparticles is transferred to SnakeSkin dialysis tubing (10,000 MWCO, Thermo Scientific). Material is dialyzed against RNAse- and pyrogen-free 1× phosphate buffered saline overnight at 4° C.
Percent encapsulation of plasmid DNA in lipid nanoparticles is determined using the Quant-iT Ribogreen RNA Assay kit (Life Technologies). The LNP-DNA suspension is assayed in buffer (DNA outside the particle), and buffer plus Triton X-100 detergent (total DNA). The difference calculated is the DNA inside the particle. Prepare a 1000 ng/mL stock using unpackaged plasmid and use this to generate a standard curve (0 ng/ml, 15.63-1000 ng/ml) in TE and TE+0.75% Triton X-100. Prepare LNP-plasmid samples in TE buffer and TE buffer+0.75% Triton X-100 with appropriate dilution so that reading is in the range of standard curve (25 fold). In a 384-well plate (Costar non-treated #3573) add 0.04 ml of standard (in duplicate) or sample (in triplicate) per well. Dilute Ribogreen reagent 240-fold in TE buffer and add 0.06 ml per well. Mix contents of wells and measure fluorescence (excitation=480 nm, emission=520 nm). Subtract background values (no DNA) from standard and test sample values and determine the concentrations of DNA in the samples using the standard curves. Determine the percent encapsulation of the sample by dividing the difference in concentrations between sample+triton and sample in buffer alone by the sample+triton concentration.

Row | SMILES | Size ([1]; FLuc mRNA) | Size ([1]; FVII siRNA) | Size ([1]; Gluc mRNA) | Size 1st IM [1] | Size 2nd IM [1] | Size ([1]; hFIX mRNA) | Size ([1]; hLep plasmid) | Size ([1]; hLeptin mRNA) | Size ([1]; mEPO mRNA) | Size ([1]; pDNA) | % Encap. ([2]; FLuc mRNA) | % Encap. ([2]; Gluc mRNA) | % encapsulation mRNA Leptin [2] | % Encap. ([2]; hFIX mRNA) | % Encap. ([2]; hLeptin mRNA) | % Encap. ([2]; mEPO mRNA) | % Encap. ([3]; hLep plasmid) | % Encap. ([3]; pDNA)
1 | CCCCC/C=C\C/C=C\CCCCCCCC(=O)OCC(COC(=O)CCCCCCC/C=C\C/C=C\CCCCC)COC(=O)C1(C)CCN(C)C1 (stereo not drawn) [Example 1, (9Z,9′Z,12Z,12′Z)-2-(((1,3-dimethylpyrrolidine-3-carbonyl)oxy)methyl)propane-1,3-diyl bis(octadeca-9,12-dienoate)] | 119.0 nm | 102.3 nm | 95.7 nm | 139.1 nm | 133.5 nm | 126.9 nm | 105.1 nm | 100.0 nm | 107.2 nm | 100.7 nm | 86.8% | 92.3% | 96.7% | 89.5% | 96.7% | 94.7% | 93.0% | 94.7%
2 | CCCCC/C=C\C/C=C\CCCCCCCC(=O)OCC(COC(=O)CCC(OCCCCCCCC)OCCCCCCCC)COC(=O)OCCCN(CC)CC (stereo not drawn) [Example 13, (9Z,12Z)-3-((4,4-bis(octyloxy)butanoyl)oxy)-2-((((3-(diethylamino)propoxy)carbonyl)oxy)methyl)propyl octadeca-9,12-dienoate] | 121.9 nm | 101.5 nm | 90.8 nm |  |  | 122.4 nm | 121.5 nm | 127.6 nm | 113.7 nm | 95.12 nm | 98.3% | 97.2% | 90.7% | 96.4% | 95.4% | 98.5% | 95.9% | 98.2%
3 | CCCCC/C=C\C/C=C\CCCCCCCC(=O)OCC(COC(=O)CCC(OCCCCCCCC)OCCCCCCCC)COC(=O)OCC1CCCN(CC)C1 (stereo not drawn) [Example 15, (9Z,12Z)-3-((4,4-bis(octyloxy)butanoyl)oxy)-2-(((((1-ethylpiperidin-3-yl)methoxy)carbonyl)oxy)methyl)propyl octadeca-9,12-dienoate] | 100.7 nm |  | 84.7 nm | 144.7 nm | 139.4 nm | 96.8 nm | 94.5 nm | 119.8 nm | 90.1 nm | 86.9 nm | 98.1% | 98.1% | 97.3% | 98.4% | 97.3% | 98.3% | 93.6% | 93.2%
